Like-named read-outs stand apart in the source and are kept apart here.
Legend:
STAT3 [1] = target: STAT3 (Mus musculus, UniProt P42227); assay: Stat3 DNA-binding activity, electrophoretic mobility shift assay (EMSA) with nuclear extracts; format: biochemical
Description: Nuclear extract preparations and electrophoretic mobility shift assay (EMSA) were carried out as previously described (Yang J, et al. (2005) Cancer Res. 65:939-947). […] For direct effect of a test compound on Stat3 DNA-binding activity, nuclear extracts were pre-incubated with the agent for 30 min at room temperature prior to incubation with the radiolabeled probe for 30 min at 30° C. before subjecting to EMSA analysis. […] Cytosolic extract preparation from mammalian cells and luciferase assay previously described (Zhang X, et al. (2010) Biochem Pharmacol 79:1398-1409; Turkson J, et al. (1999) Mol. Cell. Biol. 19:7519-7528; Turkson J, et al. (1998) Mol. Cell. Biol. 18:2545-2552).)

STAT3 [2] = target: STAT3 (Homo sapiens (Human), UniProt P40763); assay: Fluorescence polarization assay, inhibition of binding to STAT3; settings: inhibition of binding to STAT3 in a fluorescence polarization assay; read-out: Ki (FP)
Chain of STAT3 (Homo sapiens (Human), UniProt P40763) (P40763 whole entry): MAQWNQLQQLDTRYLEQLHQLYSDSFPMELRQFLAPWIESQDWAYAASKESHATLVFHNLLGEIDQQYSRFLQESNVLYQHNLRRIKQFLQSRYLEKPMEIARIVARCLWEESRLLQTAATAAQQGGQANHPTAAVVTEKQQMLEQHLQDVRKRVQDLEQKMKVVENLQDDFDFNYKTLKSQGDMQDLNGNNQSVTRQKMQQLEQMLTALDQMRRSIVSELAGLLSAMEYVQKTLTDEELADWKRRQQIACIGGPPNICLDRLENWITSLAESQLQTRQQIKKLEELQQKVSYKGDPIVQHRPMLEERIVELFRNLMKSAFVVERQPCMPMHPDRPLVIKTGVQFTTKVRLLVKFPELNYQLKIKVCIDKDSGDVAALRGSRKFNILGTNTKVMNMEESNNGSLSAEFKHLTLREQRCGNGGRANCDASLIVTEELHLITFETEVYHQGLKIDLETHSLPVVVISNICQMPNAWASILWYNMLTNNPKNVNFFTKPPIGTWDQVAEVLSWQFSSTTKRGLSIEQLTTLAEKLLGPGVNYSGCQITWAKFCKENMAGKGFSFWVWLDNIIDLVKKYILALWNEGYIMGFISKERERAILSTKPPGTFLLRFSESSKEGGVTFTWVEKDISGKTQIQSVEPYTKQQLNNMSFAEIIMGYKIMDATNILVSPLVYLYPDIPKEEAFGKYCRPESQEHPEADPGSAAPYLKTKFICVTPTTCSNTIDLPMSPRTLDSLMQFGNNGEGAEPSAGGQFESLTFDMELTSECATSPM
Description: The fluorescent polarization experiments were performed on an Infinite M1000 (Tecan, Crailsheim, Germany). All assays were performed in the same buffer conditions of 50 mM NaCl, 10 mM Hepes, pH 7.5, 1 mM EDTA, and 2 mM dithiothreitol. Fluorescent-labelled peptides were kept at a final concentration of 10nM in buffered solution. […] of labelled peptides were added to […] of a 300 nM STAT3 protein solution (provided by SignalChem in 50 mM Tris-HCl, pH 7.5, 150 mM NaCl, 0.25 mM DTT, 0.1 mM PMSF, 25% glycerol and stored at −80° C.). Inhibitory molecules were dissolved in pure DMSO and diluted using buffer solution to produce four final concentrations ([…]). 7.5 μL of the inhibitory molecule solution was mixed with the STAT3 protein and labelled peptide solution in black 384-flat well microplates (Coming), and incubated for 15-30 minutes. The M1000 performed a shaking cycle and then read the plates. IC50′s were derived from the output using the curve-fitting software OriginPro 8 (Northampton, MA). The FP data was modelled by the following equation:
[formula] where X was the concentration of inhibitor and ρwas the corresponding fluorescence at that concentration. The free parameter was half the maximal inhibitory concentration (IC50) and the limiting values was the maximal measured fluorescence polarization (ρ1) and the minimal fluorescence polarization (ρ2). Origin curve fitting software utilizes the Levenberg-Marquardt algorithm and reduced chi-square criterion for convergence. The inhibitor dissociation constant, Ki, was calculated from the derived IC50 values, as per the following formula: […]
Further details of the fluorescence polarization assay are as described previously (Zhang X, et al. (2010) A novel small-molecule disrupts Stat3 SH2domainphosphotyrosine interactions and Stat3-dependent tumor processes. Biochem Pharmacol 79: 1398-1409).

DU-145 cells = assay: Cell viability, MTS assay; format: cell-based; settings: Homo sapiens, DU-145, 72 hours
Description: (§1) To further test activity of these molecules, a whole-cell study involving cancer lines with known abherrant STAT3 expression was conducted. These human cell lines, including prostate cancer (DU145), breast cancer (MDA468), and promyelocytic leukemia (HL-60) were treated with the peptidomimetics and incubated for 72 hours. Disruption of cell viability was measured by MTS assay and IC50 values for the potential inhibitors was determined. OriginPro 8 (Northampton, Mass.) was used to evaluate EC50 using the dose response curve defined as follows:
(§2) [formula] where y is the fraction of death, x is the log of drug concentration. A2 is the top asymptote, A1 is the bottom asymptote, logx0 is the center of the curve, and p is the hill slope.

HL60 cells = assay: Cell viability, MTS assay; format: cell-based; settings: Homo sapiens, HL-60, HL60, 72 hours
Description: as §1, §2

MDA-468 cells = assay: Cell viability, MTS assay; format: cell-based; settings: Homo sapiens, MDA-468, 72 hours
Description: as §1, §2

OCI-AMI.2 cells = assay: Cell viability, MTS assay; format: cell-based
K562 cells = assay: Cell viability in cell lines with constitutive activation of STAT5 (Almar Blue); format: cell-based
Description: (§3) To determine whether STAT5 inhbitors could be cytotoxic in cell lines that have constitutive activation of STAT5, the cell lines K562 and MV-4-11 were cultured at concentration 1×10^5, to insure that the cells are at the exponential stage of growth, and treated with the different synthesized molecules at concentrations of 10, 20 and 40 μM. Viability were determined using Almar Blue (Invitrogen) in 96-well plate over 3 consecutive days. Fluorescence was quantified using Spectra Max M5 (Molecular Devices).

MV-4-11 cells = assay: as above; format: cell-based
Description: as §3

[3] = inhibition of STAT3 activity in an EMSA

Chain of STAT3 (Mus musculus, UniProt P42227) (P42227 2-770 limits assumed): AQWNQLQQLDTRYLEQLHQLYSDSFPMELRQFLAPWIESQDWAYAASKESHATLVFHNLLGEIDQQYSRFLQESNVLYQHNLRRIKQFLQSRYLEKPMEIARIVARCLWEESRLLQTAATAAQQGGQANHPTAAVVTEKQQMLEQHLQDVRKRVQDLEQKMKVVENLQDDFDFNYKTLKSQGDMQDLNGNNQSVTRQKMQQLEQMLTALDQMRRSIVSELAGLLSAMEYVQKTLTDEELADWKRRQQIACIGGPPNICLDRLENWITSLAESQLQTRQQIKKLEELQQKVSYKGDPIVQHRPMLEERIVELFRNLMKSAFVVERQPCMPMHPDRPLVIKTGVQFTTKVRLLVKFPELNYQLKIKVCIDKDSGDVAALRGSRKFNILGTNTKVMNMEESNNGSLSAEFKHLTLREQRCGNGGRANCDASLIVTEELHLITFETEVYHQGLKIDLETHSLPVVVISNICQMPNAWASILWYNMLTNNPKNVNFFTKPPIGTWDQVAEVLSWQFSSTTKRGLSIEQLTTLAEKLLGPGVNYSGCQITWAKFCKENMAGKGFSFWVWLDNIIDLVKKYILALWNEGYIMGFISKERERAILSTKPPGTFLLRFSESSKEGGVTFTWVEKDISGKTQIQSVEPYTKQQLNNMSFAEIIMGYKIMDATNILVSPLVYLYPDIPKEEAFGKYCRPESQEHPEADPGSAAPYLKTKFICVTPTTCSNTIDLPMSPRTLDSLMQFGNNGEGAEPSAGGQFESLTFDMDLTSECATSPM

Structure (SMILES)	IC50 (STAT3 [1]; [3]) [µM]	Ki (STAT3 [2]) [µM]	IC50 (DU-145 cells) [µM]	IC50 (HL60 cells) [µM]	IC50 (MDA-468 cells) [µM]	IC50 (OCI-AMI.2 cells) [µM]	IC50 (STAT3 [1]) [µM]	IC50 (K562 cells; Homo sapiens) [µM]	IC50 (MV-4-11 cells; Homo sapiens, MV4-11) [µM]	IC50 (K562 cells) [µM]	IC50 (MV-4-11 cells) [µM]
CN(CC(=O)N(Cc1ccc(C2CCCCC2)cc1)c1ccc(C(=O)O)c(O)c1)S(=O)(=O)c1cccc2cccnc12 [Compound 45F, 4-(N-(4-cyclohexylbenzyl)-2-(N-methylquinoline-8-sulfonamido)acetamido)-2-hydroxy-benzoic acid]	24.6 ± 3.4	41 ± 0.4	> 100	> 100	> 100	> 100					
Cc1ccc(S(=O)(=O)N(C)CC(=O)N(Cc2ccc(-c3ccc(-c4ccc(C(N)=O)cc4)cc3)cc2)c2ccc(C(=O)O)c(O)c2)cc1 [Compound 27NH, 4-(N-((4″-carbamoyl-[1,1′:4′,1″-terphenyl]-4-yl)methyl)-2-(N,4-dimethylphenylsulfonamido)acetamido)-2-hydroxybenzoic acid]		16.7 ± 1.7					43 ± 1.3				
Cc1ccc(S(=O)(=O)N(C)CC(=O)N(Cc2ccc(C3CCN(S(=O)(=O)c4ccc(C#N)cc4)CC3)cc2)c2ccc(C(=O)O)c(O)c2)cc1 [Compound 27KG, 4-(N-(4-(1-((4-cyanophenyl)sulfonyl)piperidin-4-yl)benzyl)-2-(N,4-dimethylphenyl-sulfonamido)acetamido)-2-hydroxybenzoic acid]	50 ± 15	21.5 ± 2.2	> 100	83.1 ± 13.5	94.9 ± 8.8	> 100					
CN(CC(=O)N(Cc1ccc(C2CCCCC2)cc1)c1ccc(C(=O)O)c(O)c1)S(=O)(=O)c1ccc(-c2ccccc2)cc1 [Compound 45c, 4-(N-(4-cyclohexylbenzyl)-2-(N-methylbiphenyl-4-ylsulfonamido)acetamido)-2-hydroxy-benzoic acid]			80 ± 31.6	74.8 ± 28.2	47.4 ± 6.2	95.4 ± 33.7		42 ± 16	17 ± 1		
CN(CC(=O)N(Cc1ccc(C2CCCCC2)cc1)c1ccc(C(=O)O)c(O)c1)S(=O)(=O)c1cccc2ccccc12 [Compound 45E, 4-(N-(4-cyclohexylbenzyl)-2-(N-methylnaphthalene-1-sulfonamido)acetamido)-2-hydroxy-benzoic acid]	28.8 ± 2	26.5 ± 0.4	74.5 ± 30.2	76.9 ± 50.5	46.5 ± 12.4	33.3 ± 19.8					
Cc1cc(C)c(S(=O)(=O)N(C)CC(=O)N(Cc2ccc(C3CCCCC3)cc2)c2ccc(C(=O)O)c(O)c2)c(C)c1 [Compound 45b, 4-(N-(4-cyclohexylbenzyl)-2-(N,2,4,6-tetramethylphenylsulfonamido)acetamido)-2-hydroxy-benzoic acid]			44.5 ± 16	40.4 ± 20.2	22.6 ± 8.3	65.4 ± 13		80 ± 18	> 80		
CN(CC(=O)N(Cc1ccc(C2CCCCC2)cc1)c1ccc(C(=O)O)c(O)c1)S(=O)(=O)c1ccc2ccccc2c1 [Compound 45D, 4-(N-(4-cyclohexylbenzyl)-2-(N-methylnaphthalene-2-sulfonamido)acetamido)-2-hydroxy-benzoic acid]	79.2 ± 11.2		81 ± 39.3	99.8 ± 15.6	45.4 ± 23.2	93.5 ± 32.2					
Cc1ccc(S(=O)(=O)N(CC(=O)N(Cc2ccccc2)c2ccc(C(=O)O)c(O)c2)C(=O)OC(C)(C)C)cc1 [SF-1-088]										77 ± 5	> 80
Cc1ccc(S(=O)(=O)N(CC(=O)N(Cc2ccc(C3CCCCC3)cc2)c2ccc(C(=O)O)c(O)c2)C(=O)OC(C)(C)C)cc1 [SF-1-087]										> 80	51 ± 7
CN(C)c1cccc2c(S(=O)(=O)N(C)CC(=O)N(Cc3ccc(C4CCCCC4)cc3)c3ccc(C(=O)O)c(O)c3)cccc12 [Compound 45G, 4-(N-(4-cyclohexylbenzyl)-2-(5-(dimethylamino)-N-methylnaphthalene-1-sulfonamido)acetamido)-2-hydroxybenzoic acid]			> 100	74.9 ± 20.2	45.5 ± 7.9	> 100					
Cc1ccc(S(=O)(=O)N(C)CC(=O)N(Cc2ccc(-c3ccc(-c4cccc(C#N)c4)cc3)cc2)c2ccc(C(=O)O)c(O)c2)cc1 [Compound 27NC]			> 100	82.8 ± 19	90.5 ± 63.2	> 100					
COC(=O)c1cccc(-c2ccc(-c3ccc(CN(C(=O)CN(C)S(=O)(=O)c4ccc(C)cc4)c4ccc(C(=O)O)c(O)c4)cc3)cc2)c1 [Compound 27na]			81.5 ± 8	33.2 ± 9.2	29 ± 2.3	35.1 ± 19.4		24 ± 3	24 ± 2		
CN(CC(=O)N(Cc1ccc(C2CCCCC2)cc1)c1ccc(C(=O)O)c(O)c1)S(=O)(=O)c1ccc(Cl)cc1 [Compound 45K, 4-(2-(4-chloro-N-methylphenylsulfonamido)-(4-cyclohexylbenzyl)acetamido)-2-hydroxy-benzoic acid]			67.5 ± 24.2	56.3 ± 9.3	29.7 ± 16.7	76.4 ± 10.8					

Reference: US10196373B2, “Substituted 2-hydroxy-4-(2-(phenylsulfonamido)acetamido)benzoic acid analogs as inhibitors of STAT protein” (University of Central Florida Research Foundation, Inc., priority 2010, dated 2019)
